Measured values published in patent publication US12151999B2, “Small molecule compounds having naphthylamine structure and application thereof” (Hangzhou PhecdaMed Co., Ltd., priority 2021, dated 2024).

Key:
[1] = Rat pharmacokinetics (PK) test; assay type: in vivo, SD rats; details: for bioavailability: read-out: Bioavailability F; for half-life: read-out: Half-life t 1/2 (converted); for Cmax: read-out: Peak blood concentration C max
Method: (§1) Take experimental mice and apply an appropriate amount of the test compound to them according to the dosage and administration route shown in the figure. Three experimental mice were selected for three parallel experiments for each compound and each administration method. Numbers 101, 102 and 103 were in the same group, 201, 202 and 203 were in one group, and 301, 302 and 303 were in one group.
(§2) At the corresponding time point, take 10 μL of rat plasma sample into a centrifuge tube, add 100 μL of methanol:acetonitrile (1:1, v/v), perform […] for 1 min, centrifuged (14000 rpm) for 5 min, and take 50 μL of the supernatant, mixed with water in equal volumes, mixed uniformly by […] and then analyzed.
(§3) Note: The mice used in the PK experiment are ICR mice of SPF, purchased from Sino-British SIPPR Lab Animal Ltd, Shanghai, China. The rats used in the PK experiments were SD rats of SPF, purchased from Sino-British SIPPR Lab Animal Ltd, Shanghai, China.

[2] = In vitro plasma stability test; assay type: in vitro ADME; details: 37° C.
Method: Procaine was selected as the reference compound. The specific method is as follows:
Incubated in a water bath at 37° C. for 0, 5, 15 and 30 minutes and 1, 2, 4, 6, 10, 24 and 48 hours. Take 200 μL and add 3 times the volume of chromatography grade acetonitrile to precipitate the protein. Vortex shaking for 5 minutes, centrifuge, take 200 μL of the supernatant, HPLC injection and analysis. The liquid phase conditions are the same as before.

[3] = system: HEK293Tmtkeima cells; test: Functional test of mitophagy inducer (mtKeima imaging, with or without CCCP-induced mitochondrial damage); assay type: cell-based, Human; details: for Ability to selectively induce autophagy in damaged mitochondria (FIG. 2): 5 uM or 10 uM CCCP versus no CCCP treatment; for The ability of selection to induce autophagy in damaged mitochondria: HEK293Tmtkeima cells, 5 uM or 10 uM CCCP to induce mitochondrial damage, number of cells in which damaged mitophagy occurs/number of all cells
Method: Group 1: Human embryonic kidney transformed cells HEK293Tmtkeima cells were treated with 0 μM, 1.25 μM, 2.5 μM, 5 μM and 10 μM CCCP respectively, and seeded in a 96-well black ELISA PLATE at 1.5*10^5 cells/ml, 100 μL per well. Compound I-2 was added after 25 hours, and 3 replicates were set. At 37° C., under 5% CO2 incubation conditions, photographs were taken every few hours with biotek cytation 5 for a total of 20 hours, with the bright field as the focusing channel, and 9 images were taken per hole, and the images were processed using the instrument software.
Group 2: Human embryonic kidney transformed cells HEK293Tmtkeima cells were seeded in a 96-well black ELISA PLATE at […], 100 μL per well; compounds I-1˜I-44 and UMI-77 were added after 25 hours, set up 3 replicates; under 37° C., 5% CO2 culture conditions, use biotek every few hours Cytation 5 was used to take photos, a total of 20 hours of shooting. In another group of cells under the same conditions, human embryonic kidney-transformed cells HEK293Tmtkeima cells were seeded in a 96-well black enzyme plate at 1.5*10^5 cells/ml, 100 μl per well; after 24 hours, 5 uM or 10 uM CCCP (Carbonyl cyanide) was first added 3-chlorophenylhydrazone) to induce mitochondrial damage, then add I-1˜I-44, UMI-77 1 hour later, set up 3 repetitions; under 37° C., 5% CO2 culture conditions, pictures were taken every few hours with biotek cytation 5, photographs were taken for 20 hours. Another group of human embryonic kidney transformed cells HEK293Tmtkeima cells was seeded at 1.5*10^5 cells/ml in 96-well black ELISA PLATE at 100 μl per well under the same conditions, 24 hours later 5 uM or 10 uM CCCP (Carbonyl cyanide 3-chlorophenylhydrazone) was first added to induce mitochondrial damage, after 1 hour then add I-1 to I-44, UMI-77 and set up 3 replicates. At 37° C., under 5% CO2 incubation conditions, pictures were taken every few hours with biotek cytation 5, photographs were taken for 20 hours, with the bright field as the focusing channel for both groups, and 9 images were taken per hole, and the images were processed using the instrument software.

[4] = Mouse pharmacokinetics (PK) test; assay type: in vivo, ICR mice; details: for AUC(0-inf) / bioavailability / half-life / Cmax / clearance / Vd: ICR, plasma; for bioavailability: read-out: Bioavailability F; for half-life: read-out: Half-life t 1/2 (converted); for Cmax: read-out: Peak blood concentration C max; for clearance: read-out: Eliminate Cl; for Vd: read-out: Steady state apparent volume of distribution Vss
Method: as §1, §2, §3

[5] = In vitro liver microsome stability test; assay type: in vitro ADME; details: in vitro mouse or human liver microsomes
Method: Ketanserin was selected as the reference compound. The specific method is as follows:
Prepare 0.1MK3PO4 (pH 7.4) buffer and 3×NADPH stock solution (6 mM, 5 mg/mL), and preheat in a 37° C. water bath; configure the test compound and control compound spiking solution: 5 μL compound stock solution ([…]) was added to 95 μL acetonitrile; Configuration of 1.5 μM spiking solution in microsomes (0.75 mg/mL): 1.5 μL of spiking solution and 18.75 μL of liver microparticles solution (20 mg/mL) were added to 479.75 μL of K3PO4 buffer; add 30 μL spiking solution in microsomes to the multi-well plate, and incubated at 37° C. for 5 minutes; add 15 μL NADPH stock solution to each well to start the reaction, and timing; the reaction was terminated by adding 150 μL of acetonitrile solution containing IS at 0 min, 5 min, 15 min, 30 min and 45 min, respectively; shake for 10 min and then centrifuge at 6000 rpm for 15 min; take 80 μL of the supernatant from each well for LC/MS detection and calculate T1/2.
Note: The mouse and human liver microsomes used in the experiments were purchased from Xenotech.

[6] = SD, plasma, IP intraperitoneal injection (3 mg/kg)
[7] = SD, plasma, IV intravenous injection (1 mg/kg)
[8] = SD, plasma, PO oral gavage (10 mg/kg)
[9] = IP intraperitoneal injection, 3 mg/kg
[10] = IV intravenous injection, 1 mg/kg

Compound	Plasma stability (half-life, FIG. 4) [2]	Ability to selectively induce autophagy in damaged mitochondria (FIG. 2) [3]	The ability of selection to induce autophagy in damaged mitochondria [3]	PK properties in the mouse PK experiment (in words) [4]	AUC(0-inf) [4, 10]	clearance [4, 10]	half-life [4, 10]	Cmax [4, 10]	Vd [4, 10]	AUC(0-inf) ([4]; PO oral gavage, 10 mg/kg)	bioavailability ([4]; PO oral gavage, 10 mg/kg)	half-life ([4]; PO oral gavage, 10 mg/kg)	Cmax ([4]; PO oral gavage, 10 mg/kg)	Liver microsomal stability (elimination half-life T 1/2, FIG. 3) [5]	further results
O=C(O)C[S+]([O-])c1cc(NS(=O)(=O)c2ccc(Br)cc2)c2ccccc2c1O (centres unmarked) [Compound I-1]	superior plasma stability	more likely to induce autophagy in damaged mitochondria	+++ (strong ability to selectively induce autophagy in damaged mitochondria (number of cells in which damaged mitophagy occurs/number of all cells >0.30))	good PK properties	714 ng·h/mL	24.9 mL/min/kg	75 min	832 ng/mL	2.3 L/kg	3800 ng·h/mL	60.4%	118 min	1350 ng/mL	superior liver microsomal stability	PK properties in the rat PK experiment (in words) [1]: good PK properties; AUC(0-inf) [1, 6]: 18300 ng·h/mL; bioavailability [1, 6]: 165%; half-life [1, 6]: 200 min; Cmax [1, 6]: 5440 ng/mL; AUC(0-inf) [1, 7]: 3720 ng·h/mL; clearance ([1]; SD, plasma, IV intravenous injection (1 mg/kg), read-out: Eliminate Cl): 4.91 mL/min/kg; half-life [1, 7]: 116 min; Cmax [1, 7]: 1900 ng/mL; Vd ([1]; SD, plasma, IV intravenous injection (1 mg/kg), read-out: Steady state apparent volume of distribution V ss): 0.63 L/kg; AUC(0-inf) [1, 8]: 6070 ng·h/mL; bioavailability [1, 8]: 16.3%; half-life [1, 8]: 57.6 min; Cmax [1, 8]: 1550 ng/mL; AUC(0-inf) [4, 9]: 4420 ng·h/mL; bioavailability [4, 9]: 247%; half-life [4, 9]: 47.4 min; Cmax [4, 9]: 3740 ng/mL
CN(c1cc([S+]([O-])CC(=O)O)c(O)c2ccccc12)S(=O)(=O)c1ccc(Br)cc1 (centres unmarked) [Compound I-2]	superior plasma stability	more likely to induce autophagy in damaged mitochondria	++ (moderate ability to selectively induce autophagy in damaged mitochondria (number of cells in which damaged mitophagy occurs/number of all cells in the range of 0.2 to 0.3))	good PK properties	429 ng·h/mL	39.3 mL/min/kg	58.8 min	947 ng/mL	1.39 L/kg	1050 ng·h/mL	24.1%	82.2 min	495 ng/mL	superior liver microsomal stability	Induction of mitophagy in cells with undamaged mitochondria (FIG. 1) ([3]; cells treated with 0 μM CCCP): unable to induce autophagy in non-damaged mitochondria; Induction of mitophagy in cells with mitochondrial damage (FIG. 1) ([3]; cells with CCCP (10 μM) versus without CCCP): selectively induces autophagy in damaged mitochondria
Cn1cc(S(=O)(=O)Nc2cc([S+]([O-])CC(=O)CO)c(O)c3ccccc23)cn1 (centres unmarked) [Compound I-36]	–	–	++ (moderate ability to selectively induce autophagy in damaged mitochondria (number of cells in which damaged mitophagy occurs/number of all cells in the range of 0.2 to 0.3))	–	–	–	–	–	–	–	–	–	–	–	–
Cc1noc(C)c1S(=O)(=O)Nc1cc([S+]([O-])CC(=O)O)c(O)c2ccccc12 (centres unmarked) [Compound I-37]	–	–	++ (moderate ability to selectively induce autophagy in damaged mitochondria (number of cells in which damaged mitophagy occurs/number of all cells in the range of 0.2 to 0.3))	–	–	–	–	–	–	–	–	–	–	–	–
O=C(O)CS(=O)(=O)c1cc(NS(=O)(=O)c2ccc(Br)cc2)c2ccccc2c1O [Compound I-42]	–	–	+ (weak ability to selectively induce autophagy in damaged mitochondria (number of cells in which damaged mitophagy occurs/number of all cells in the range of 0.1 to 0.2))	–	–	–	–	–	–	–	–	–	–	–	–
O=C(O)CSc1cc(NS(=O)(=O)c2ccc(Br)cc2)c2ccccc2c1O [UMI-77, reference compound]	unstable in the plasma environment and will be rapidly eliminated	unable to selectively induce autophagy in damaged mitochondria	–	rapidly cleared	140 ng·h/mL	131 mL/min/kg	–	314 ng/mL	18.4 L/kg	162 ng·h/mL	8.64%	–	102 ng/mL	unstable in the liver microsomal environment and will be rapidly eliminated	–
